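Five compound concentrations were applied to cells in 96-well plates for 48 hours; endpoints were derived by simple linear interpolation of the resulting dose-response curve. The concentration for 50% growth inhibition is given as GI50.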 Calls of active or inactive are those of the source. No stated cut-off is given here; in the data, active = GI50 up to about 1.1 µM and inactive = higher.
Columns and labels:
Experiment in all cases: growth of human tumour cells (NCI), 48 h
MOLT-4 = tested on: MOLT-4
KM-20L2 = tested on: KM-20L2
HOP-92 = tested on: HOP-92
DLD-1 = tested on: DLD-1
UACC-62 = tested on: UACC-62
DMS-273 = tested on: DMS-273
HCT-15 = tested on: HCT-15
A549 = tested on: A549
SF-295 = tested on: SF-295
SNB-78 = tested on: SNB-78
HCT-116 = tested on: HCT-116
OVCAR-3 = tested on: OVCAR-3
SK-MEL-5 = tested on: SK-MEL-5
RXF 393 = tested on: RXF 393
U-251 = tested on: U-251
SK-OV-3 = tested on: SK-OV-3
ACHN = tested on: ACHN
UO-31 = tested on: UO-31
HOP-62 = tested on: HOP-62
XF498 = tested on: XF498
TK-10 = tested on: TK-10
OVCAR-4 = tested on: OVCAR-4
Malme-3M = tested on: Malme-3M
IGROV-1 = tested on: IGROV-1
NCI-H522 = tested on: NCI-H522
NCI-H226 = tested on: NCI-H226
SNB-19 = tested on: SNB-19
NCI-H460 = tested on: NCI-H460
SW-620 = tested on: SW-620
LOX IMVI = tested on: LOX IMVI
DMS-114 = tested on: DMS-114
OVCAR-5 = tested on: OVCAR-5
HOP-18 = tested on: HOP-18
HT-29 = tested on: HT-29
M14 = tested on: M14
OVCAR-8 = tested on: OVCAR-8
SR = tested on: SR
SNB-75 = tested on: SNB-75
SF-539 = tested on: SF-539
NCI-H23 = tested on: NCI-H23
SF-268 = tested on: SF-268
CAKI-1 = tested on: CAKI-1
LXFL 529 = tested on: LXFL 529
SN12C = tested on: SN12C
RPMI-8226 = tested on: RPMI-8226
HCC 2998 = tested on: HCC 2998
UACC-257 = tested on: UACC-257
DU-145 = tested on: DU-145
MDA-MB-231 = tested on: MDA-MB-231
Hs-578T = tested on: Hs-578T
K562 = tested on: K562
T47D = tested on: T47D
M19-MEL = tested on: M19-MEL
MDA-N = tested on: MDA-N
SK-MEL-2 = tested on: SK-MEL-2
COLO 205 = tested on: COLO 205
HL-60 = tested on: HL-60
EKVX = tested on: EKVX
KM12 = tested on: KM12
BT-549 = tested on: BT-549
MDA-MB-435 = tested on: MDA-MB-435
NCI/ADR-RES = tested on: NCI/ADR-RES
CCRF-CEM = tested on: CCRF-CEM
786-0 = tested on: 786-0
MCF7 = tested on: MCF7
PC-3 = tested on: PC-3
SK-MEL-28 = tested on: SK-MEL-28
A498 = tested on: A498

CCOc1ccc(C(C)c2cc3c(cc2OC)OCO3)cc1 (stereo not given)
GI50 (MOLT-4): 396 nM (active) | GI50 (KM-20L2): 199 nM (active) | GI50 (HOP-92): 855 nM (active) | GI50 (DLD-1): 377 nM (active) | GI50 (UACC-62): 376 nM (active) | GI50 (DMS-273): 245 nM (active) | GI50 (HCT-15): 299 nM | GI50 (A549): 455 nM (active) | GI50 (SF-295): 82.8 nM (active) | GI50 (SNB-78): 3200 nM (inactive) | GI50 (HCT-116): 371 nM (active) | GI50 (OVCAR-3): 221 nM (active) | GI50 (SK-MEL-5): 269 nM (active) | GI50 (RXF 393): 222 nM (active) | GI50 (U-251): 380 nM (active) | GI50 (SK-OV-3): 320 nM (active) | GI50 (ACHN): 897 nM (active) | GI50 (UO-31): 491 nM (active) | GI50 (HOP-62): 323 nM (active) | GI50 (XF498): 256 nM (active) | GI50 (TK-10): 353 nM (active) | GI50 (OVCAR-4): > 100000 nM (inactive) | GI50 (Malme-3M): 457 nM (active) | GI50 (IGROV-1): 2750 nM (inactive) | GI50 (NCI-H522): 31.6 nM (active) | GI50 (NCI-H226): 207 nM (active) | GI50 (SNB-19): 561 nM (active) | GI50 (NCI-H460): 340 nM (active) | GI50 (SW-620): 259 nM (active) | GI50 (LOX IMVI): 259 nM (active) | GI50 (DMS-114): 214 nM (active) | GI50 (OVCAR-5): 65500 nM (inactive) | GI50 (HOP-18): 2200 nM (inactive) | GI50 (HT-29): 237 nM (active) | GI50 (M14): 361 nM (active) | GI50 (OVCAR-8): 424 nM (active) | GI50 (SR): 98.2 nM (active) | GI50 (SNB-75): 277 nM (active) | GI50 (SF-539): 271 nM (active) | GI50 (NCI-H23): 267 nM (active) | GI50 (SF-268): 1050 nM (active) | GI50 (CAKI-1): 834 nM (active) | GI50 (LXFL 529): 429 nM (active) | GI50 (SN12C): 484 nM (active) | GI50 (RPMI-8226): 427 nM (active) | GI50 (HCC 2998): 466 nM (active) | GI50 (UACC-257): 767 nM (active)

CN(C)CCN1C(=O)c2cccc3cc(N)cc(c23)C1=O [AMONAFIDE]
GI50 (MOLT-4): 804 nM (active) | GI50 (KM-20L2): 3990 nM (inactive) | GI50 (DU-145): 2940 nM (inactive) | GI50 (HOP-92): 3230 nM (inactive) | GI50 (MDA-MB-231): 2460 nM (inactive) | GI50 (Hs-578T): 6210 nM (inactive) | GI50 (K562): 3230 nM (inactive) | GI50 (DLD-1): 5380 nM (inactive) | GI50 (UACC-62): 3380 nM (inactive) | GI50 (DMS-273): 2070 nM (inactive) | GI50 (HCT-15): 2600 nM | GI50 (T47D): 4500 nM (inactive) | GI50 (M19-MEL): 4190 nM (inactive) | GI50 (MDA-N): 2900 nM (inactive) | GI50 (SK-MEL-2): 2460 nM (inactive) | GI50 (SF-295): 3460 nM (inactive) | GI50 (COLO 205): 1550 nM (inactive) | GI50 (HCT-116): 1870 nM (inactive) | GI50 (HL-60): 2240 nM (inactive) | GI50 (EKVX): 5940 nM (inactive) | GI50 (OVCAR-3): 5810 nM (inactive) | GI50 (SK-MEL-5): 2900 nM (inactive) | GI50 (RXF 393): 4060 nM (inactive) | GI50 (KM12): 4370 nM (inactive) | GI50 (U-251): 3640 nM (inactive) | GI50 (SK-OV-3): 4420 nM (inactive) | GI50 (BT-549): 4010 nM (inactive) | GI50 (ACHN): 718 nM (active) | GI50 (UO-31): 4180 nM (inactive) | GI50 (HOP-62): 2430 nM (inactive) | GI50 (XF498): 946 nM (active) | GI50 (TK-10): 3890 nM (inactive) | GI50 (OVCAR-4): 4710 nM (inactive) | GI50 (Malme-3M): 3310 nM (inactive) | GI50 (IGROV-1): 3490 nM (inactive) | GI50 (NCI-H522): 3710 nM (inactive) | GI50 (MDA-MB-435): 3370 nM (inactive) | GI50 (NCI-H226): 2400 nM (inactive) | GI50 (SNB-19): 4210 nM (inactive) | GI50 (NCI-H460): 767 nM (active) | GI50 (SW-620): 1650 nM (inactive) | GI50 (LOX IMVI): 2460 nM (inactive) | GI50 (DMS-114): 4210 nM (inactive) | GI50 (OVCAR-5): 4830 nM (inactive) | GI50 (HOP-18): 5200 nM (inactive) | GI50 (NCI/ADR-RES): 3330 nM (inactive) | GI50 (CCRF-CEM): 1910 nM (inactive) | GI50 (HT-29): 3300 nM (inactive) | GI50 (786-0): 2200 nM (inactive) | GI50 (M14): 3720 nM (inactive) | GI50 (OVCAR-8): 2140 nM (inactive) | GI50 (SNB-75): 5330 nM (inactive) | GI50 (SF-539): 3710 nM (inactive) | GI50 (NCI-H23): 3910 nM (inactive) | GI50 (MCF7): 1870 nM (inactive) | GI50 (PC-3): 2010 nM (inactive) | GI50 (SK-MEL-28): 6840 nM (inactive) | GI50 (SF-268): 5460 nM (inactive) | GI50 (A498): 3580 nM (inactive) | GI50 (SN12C): 3190 nM (inactive) | GI50 (RPMI-8226): 2490 nM (inactive) | GI50 (HCC 2998): 2480 nM (inactive) | GI50 (UACC-257): 4360 nM (inactive)

From ChEMBL document CHEMBL1201862, “PubChem BioAssay data set” (2004)
